{"source": "paper PMC7127169", "about": "(Bioorganic & Medicinal Chemistry, 2012)", "key": {"SARS-CoV PL^pro [1]": {"target": "T1, SARS-CoV PL^pro (Severe acute respiratory syndrome coronavirus, UniProt P0C6U8)", "type": "biochemical"}, "Papain": {"target": "T2, Papain (Carica papaya, UniProt P00784)", "T2 sequence (P00784 134-345)": "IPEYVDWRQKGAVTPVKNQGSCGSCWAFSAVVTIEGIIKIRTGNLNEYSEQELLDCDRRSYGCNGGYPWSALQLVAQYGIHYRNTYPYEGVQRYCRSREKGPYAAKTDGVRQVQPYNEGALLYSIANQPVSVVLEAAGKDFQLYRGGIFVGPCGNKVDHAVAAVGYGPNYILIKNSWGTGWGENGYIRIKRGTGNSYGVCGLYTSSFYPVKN", "experiment": "biochemical"}, "[2]": {"target": "SARS-CoV PL^pro deubiquitination (DUB) activity (Severe acute respiratory syndrome coronavirus, UniProt P0C6U8)", "experiment": "biochemical"}, "Chymotrypsin": {"target": "Chymotrypsin (Bos taurus, UniProt P00766)", "experiment": "biochemical"}, "SARS-CoV PL^pro [3]": {"target": "T1, SARS-CoV PL^pro", "type": "biochemical", "remark": "listed apart in the source"}, "SARS-CoV 3CL^pro": {"target": "SARS-CoV 3CL^pro (Severe acute respiratory syndrome coronavirus, UniProt P0C6U8)", "type": "biochemical", "conditions": "at 200 μM"}, "HIV-1 protease": {"target": "HIV-1 protease (Human immunodeficiency virus type 1 group M subtype B, UniProt P04585)", "experiment": "biochemical"}}, "note": "pIC50: −log10 of the molar value. “Also recorded” adds a separate entry of the source."}
{"compound": "COC(=O)[C@@]1(C)CCCc2c1ccc1c2C(=O)C(=O)c2c(C)coc2-1", "note": "[Compound 3, Methyl tanshinonate]", "values": [{"measurement": "k5", "setting": "SARS-CoV PL^pro [1]", "result": "0.0193 ± 0.001", "unit": "min⁻¹"}, {"measurement": "k6", "setting": "SARS-CoV PL^pro [1]", "result": "0.002657 ± 0.0002", "unit": "min⁻¹"}, {"measurement": "pIC50", "setting": "Papain", "result": "< 3.70"}, {"measurement": "pIC50", "setting": "[2]", "result": "< 3.70"}]}
{"compound": "Cc1cccc2c3c(ccc12)C1=C(C(=O)C3=O)[C@@H](C)CO1", "note": "[Compound 6, Dihydrotanshinone I]", "values": [{"measurement": "k5", "setting": "SARS-CoV PL^pro [1]", "result": "0.03203 ± 0.001", "unit": "min⁻¹"}, {"measurement": "k6", "setting": "SARS-CoV PL^pro [1]", "result": "0.003175 ± 0.0003", "unit": "min⁻¹"}, {"measurement": "pIC50", "setting": "Papain", "result": "< 3.70"}, {"measurement": "pIC50", "setting": "Chymotrypsin", "result": "< 3.70"}]}
{"compound": "Cc1coc2c1C(=O)C(=O)c1c-2ccc2c(C)cccc12", "note": "[Compound 5, Tanshinone I]", "values": [{"measurement": "k5", "setting": "SARS-CoV PL^pro [1]", "result": "0.03015 ± 0.003", "unit": "min⁻¹"}, {"measurement": "k6", "setting": "SARS-CoV PL^pro [1]", "result": "0.003349 ± 0.0003", "unit": "min⁻¹"}, {"measurement": "pIC50", "setting": "Papain", "result": "< 3.70"}]}
{"compound": "Cc1coc2c1C(=O)C(=O)c1c-2ccc2c1CCCC2(C)C", "note": "[Compound 1, Tanshinone IIA]", "values": [{"measurement": "k5", "setting": "SARS-CoV PL^pro [1]", "result": "0.04825 ± 0.006", "unit": "min⁻¹"}, {"measurement": "k6", "setting": "SARS-CoV PL^pro [1]", "result": "0.008485 ± 0.0001", "unit": "min⁻¹"}, {"measurement": "pIC50", "setting": "[2]", "result": "< 3.70"}]}
{"compound": "C[C@H]1COC2=C1C(=O)C(=O)c1c2ccc2c1CCCC2(C)C", "note": "[Compound 4, Cryptotanshinone]", "values": [{"measurement": "k5", "setting": "SARS-CoV PL^pro [1]", "result": "0.08127 ± 0.001", "unit": "min⁻¹"}, {"measurement": "k6", "setting": "SARS-CoV PL^pro [1]", "result": "0.001406 ± 0.0001", "unit": "min⁻¹"}, {"measurement": "slow-binding inhibition mechanism on PL^pro", "setting": "SARS-CoV PL^pro [1]", "result": "slow-binding inhibition kinetics"}, {"measurement": "type of inhibition toward PL^pro", "setting": "SARS-CoV PL^pro [3]", "result": "Noncompetitive inhibition"}]}
{"compound": "CC(C)C1=Cc2ccc3c(c2C(=O)C1=O)CCCC3(C)C", "note": "[Compound 7, Rosmariquinone]", "values": [{"measurement": "k3", "setting": "SARS-CoV PL^pro [1]", "result": "5 ± 0.83", "unit": "M⁻¹ s⁻¹"}, {"measurement": "k4", "setting": "SARS-CoV PL^pro [1]", "result": "0.006483 ± 0.0004", "unit": "min⁻¹"}, {"measurement": "slow-binding inhibition mechanism on PL^pro", "setting": "SARS-CoV PL^pro [1]", "result": "simple reversible slow-binding inhibition; also recorded: simple slow-binding mode; also recorded: simple reversible slow-binding inhibitor"}, {"measurement": "type of inhibition toward PL^pro", "setting": "SARS-CoV PL^pro [3]", "result": "mixed type inhibition"}]}
{"compound": "Salvianolic acid B", "values": [{"measurement": "inhibition of 3CL^pro", "setting": "SARS-CoV 3CL^pro", "result": 30, "unit": "%"}]}
{"compound": "Cc1coc2c1C(=O)C(=O)c1c-2ccc2c1CCCC2(C)CO", "note": "(stereo not shown) [Compound 2, Tanshinone IIB]", "values": [{"measurement": "pIC50", "setting": "HIV-1 protease", "result": "< 3.70"}, {"measurement": "k5", "setting": "SARS-CoV PL^pro [1]", "result": "0.02503 ± 0.003", "unit": "min⁻¹"}, {"measurement": "k6", "setting": "SARS-CoV PL^pro [1]", "result": "0.004704 ± 0.0002", "unit": "min⁻¹"}, {"measurement": "pIC50", "setting": "Papain", "result": "< 3.70"}, {"measurement": "pIC50", "setting": "Chymotrypsin", "result": "< 3.70"}]}
